Experimental data from the supplement of paper PMC6045584.
± gives the standard deviation of the averaged measurements.

Tests used:
BI-2536 [1] = compound: T1, CC[C@@H]1C(=O)N(C)c2cnc(Nc3ccc(C(=O)NC4CCN(C)CC4)cc3OC)nc2N1C1CCCC1 [BI-2536]; assay: area under dose-response curve of surviving fraction (unscaled, Aref=0) (surviving fraction x log10(nM)); higher = more resistant; settings: exposure time: 5 days; dose range 0.5-1000 nM
Outline: (§1)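 Surviving fractions were fitted by 3-parameter logistic regression in the drc R package to give dose-response survival curves. They came from tumour cell lines treated for five days with eight inhibitor concentrations from 0.5 to 1000 nM and read by CellTiter-Glo luminescence against DMSO-only wells. The area under the curve is the unscaled activity area. It was calculated over log10 dose with Aref = 0.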

AFATINIB [2] = compound: T2, CN(C)C/C=C/C(=O)Nc1cc2c(Nc3ccc(F)c(Cl)c3)ncnc2cc1O[C@H]1CCOC1 [AFATINIB]; assay: as above; settings: exposure time: 5 days; dose range 0.5-1000 nM
Outline: as §1

TIOGUANINE [3] = compound: T3, Nc1nc2[nH]cnc2c(=S)[nH]1 [TIOGUANINE]; assay: as above; settings: exposure time: 5 days; dose range 0.5-1000 nM
Outline: as §1

SAPACITABINE [4] = compound: T4, CCCCCCCCCCCCCCCC(=O)Nc1ccn([C@@H]2O[C@H](CO)[C@@H](O)[C@@H]2C#N)c(=O)n1 [SAPACITABINE]; assay: as above; settings: exposure time: 5 days; dose range 0.5-1000 nM
Outline: as §1

CANERTINIB [5] = compound: T5, C=CC(=O)Nc1cc2c(Nc3ccc(F)c(Cl)c3)ncnc2cc1OCCCN1CCOCC1 [CANERTINIB]; assay: as above; settings: exposure time: 5 days; dose range 0.5-1000 nM
Outline: as §1

[6] = compound: Cn1cc(C2=Nc3cc(NC(=O)C(N)C4CCCCC4)cc4c3C2=CNNC4=O)cn1; assay: as above; settings: exposure time: 5 days; dose range 0.5-1000 nM
Outline: as §1

MDV3100 [7] = compound: T6, CNC(=O)c1ccc(N2C(=S)N(c3ccc(C#N)c(C(F)(F)F)c3)C(=O)C2(C)C)cc1F [MDV3100]; assay: as above; settings: exposure time: 5 days; dose range 0.5-1000 nM
Outline: as §1

SNX-5422 [8] = compound: T7, CC1(C)CC(=O)c2c(C(F)(F)F)nn(-c3ccc(C(N)=O)c(N[C@H]4CC[C@H](OC(=O)CN)CC4)c3)c2C1 [SNX-5422]; assay: as above; settings: exposure time: 5 days; dose range 0.5-1000 nM
Outline: as §1

BI-2536 [9] = compound: T1, BI-2536; assay: surviving fraction relative to DMSO-only wells; higher = less growth inhibition; settings: exposure time: 5 days
Outline: (§2)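 In 384-well plates, 250–500 log-phase tumour cells per well were given 24 hours before five days of continuous exposure to inhibitors at 0.5, 1, 5, 10, 50, 100, 500 and 1000 nM. Surviving fraction is luminescence from CellTiter-Glo, normalised to the median of wells containing DMSO alone. Reading took place after 10 minutes at room temperature.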

AFATINIB [10] = compound: T2, AFATINIB; assay: as above; settings: exposure time: 5 days
Outline: as §2

TIOGUANINE [11] = compound: T3, TIOGUANINE; assay: as above; settings: exposure time: 5 days
Outline: as §2

SAPACITABINE [12] = compound: T4, SAPACITABINE; assay: as above; settings: exposure time: 5 days
Outline: as §2

CANERTINIB [13] = compound: T5, CANERTINIB; assay: as above; settings: exposure time: 5 days
Outline: as §2

[14] = compound: Cn1cc(C2=Nc3cc(NC(=O)C(N)C4CCCCC4)cc4c3C2=CNNC4=O)cn1; assay: as above; settings: exposure time: 5 days
Outline: as §2

MDV3100 [15] = compound: T6, MDV3100; assay: as above; settings: exposure time: 5 days
Outline: as §2

SNX-5422 [16] = compound: T7, SNX-5422; assay: as above; settings: exposure time: 5 days
Outline: as §2

**Q.** What does the source list for SCC36 HEADNECK?
**A.** area under dose-response curve (BI-2536 [1]): 1.03; area under dose-response curve (AFATINIB [2]): 1.53; area under dose-response curve (TIOGUANINE [3]): 3.72; area under dose-response curve (SAPACITABINE [4]): 2.66; area under dose-response curve (CANERTINIB [5]): 2.1; area under dose-response curve [6]: 2.54; area under dose-response curve (MDV3100 [7]): 3.27; area under dose-response curve (SNX-5422 [8]): 2.06; surviving fraction (BI-2536 [9]; 0.5 nM): 0.945 ± 0.088; surviving fraction (BI-2536 [9]; 1 nM): 0.897 ± 0.19; surviving fraction (BI-2536 [9]; 5 nM): 0.189 ± 0.011; surviving fraction (BI-2536 [9]; 10 nM): 0.191 ± 0.01; surviving fraction (BI-2536 [9]; 50 nM): 0.291 ± 0.04; surviving fraction (BI-2536 [9]; 100 nM): 0.24 ± 0.018; surviving fraction (BI-2536 [9]; 500 nM): 0.114 ± 0.0061; surviving fraction (BI-2536 [9]; 1000 nM): 0.07 ± 0.0053; surviving fraction (AFATINIB [10]; 0.5 nM): 0.926 ± 0.088; surviving fraction (AFATINIB [10]; 1 nM): 0.719 ± 0.061; surviving fraction (AFATINIB [10]; 5 nM): 0.523 ± 0.037; surviving fraction (AFATINIB [10]; 10 nM): 0.457 ± 0.031; surviving fraction (AFATINIB [10]; 50 nM): 0.418 ± 0.027; surviving fraction (AFATINIB [10]; 100 nM): 0.376 ± 0.029; surviving fraction (AFATINIB [10]; 500 nM): 0.264 ± 0.0053; surviving fraction (AFATINIB [10]; 1000 nM): 0.149 ± 0.017; surviving fraction (TIOGUANINE [11]; 0.5 nM): 1.03 ± 0.034; surviving fraction (TIOGUANINE [11]; 1 nM): 1.09 ± 0.028; surviving fraction (TIOGUANINE [11]; 5 nM): 1.16 ± 0.074; surviving fraction (TIOGUANINE [11]; 10 nM): 1.18 ± 0.078; surviving fraction (TIOGUANINE [11]; 50 nM): 1.24 ± 0.082; surviving fraction (TIOGUANINE [11]; 100 nM): 1.12 ± 0.091; surviving fraction (TIOGUANINE [11]; 500 nM): 1.13 ± 0.11; surviving fraction (TIOGUANINE [11]; 1000 nM): 1.06 ± 0.1; surviving fraction (SAPACITABINE [12]; 0.5 nM): 0.776 ± 0.055; surviving fraction (SAPACITABINE [12]; 1 nM): 0.793 ± 0.048; surviving fraction (SAPACITABINE [12]; 5 nM): 0.815 ± 0.05; surviving fraction (SAPACITABINE [12]; 10 nM): 0.797 ± 0.11; surviving fraction (SAPACITABINE [12]; 50 nM): 1.02 ± 0.16; surviving fraction (SAPACITABINE [12]; 100 nM): 0.939 ± 0.092; surviving fraction (SAPACITABINE [12]; 500 nM): 0.737 ± 0.064; surviving fraction (SAPACITABINE [12]; 1000 nM): 0.577 ± 0.0091; surviving fraction (CANERTINIB [13]; 0.5 nM): 0.715 ± 0.044; surviving fraction (CANERTINIB [13]; 1 nM): 0.747 ± 0.059; surviving fraction (CANERTINIB [13]; 5 nM): 0.645 ± 0.054; surviving fraction (CANERTINIB [13]; 10 nM): 0.753 ± 0.016; surviving fraction (CANERTINIB [13]; 50 nM): 0.741 ± 0.039; surviving fraction (CANERTINIB [13]; 100 nM): 0.747 ± 0.045; surviving fraction (CANERTINIB [13]; 500 nM): 0.328 ± 0.023; surviving fraction (CANERTINIB [13]; 1000 nM): 0.329 ± 0.035; surviving fraction ([14]; 0.5 nM): 0.976 ± 0.11; surviving fraction ([14]; 1 nM): 0.979 ± 0.038; surviving fraction ([14]; 5 nM): 1.07 ± 0.062; surviving fraction ([14]; 10 nM): 1.05 ± 0.12; surviving fraction ([14]; 50 nM): 0.753 ± 0.026; surviving fraction ([14]; 100 nM): 0.678 ± 0.045; surviving fraction ([14]; 500 nM): 0.282 ± 0.037; surviving fraction ([14]; 1000 nM): 0.19 ± 0.025; surviving fraction (MDV3100 [15]; 0.5 nM): 0.992 ± 0.091; surviving fraction (MDV3100 [15]; 1 nM): 0.955 ± 0.1; surviving fraction (MDV3100 [15]; 5 nM): 0.957 ± 0.065; surviving fraction (MDV3100 [15]; 10 nM): 1.11 ± 0.068; surviving fraction (MDV3100 [15]; 50 nM): 1.09 ± 0.028; surviving fraction (MDV3100 [15]; 100 nM): 1.03 ± 0.059; surviving fraction (MDV3100 [15]; 500 nM): 0.924 ± 0.051; surviving fraction (MDV3100 [15]; 1000 nM): 0.907 ± 0.099; surviving fraction (SNX-5422 [16]; 0.5 nM): 1.05 ± 0.13; surviving fraction (SNX-5422 [16]; 1 nM): 1.11 ± 0.086; surviving fraction (SNX-5422 [16]; 5 nM): 1.19 ± 0.13; surviving fraction (SNX-5422 [16]; 10 nM): 1.19 ± 0.089; surviving fraction (SNX-5422 [16]; 50 nM): 0.434 ± 0.067; surviving fraction (SNX-5422 [16]; 100 nM): 0.27 ± 0.041; surviving fraction (SNX-5422 [16]; 500 nM): 0.0367 ± 0.0064; surviving fraction (SNX-5422 [16]; 1000 nM): 0.039 ± 0.004
